Measurements from patent US6720450B2, “Pesticidal activity of functionalized cyclopropanes” (North Carolina State University, priority 2001, dated 2004).

Tested on: mosquito larvae
Assay: Mosquito larval mortality bioassay in microtiter plates
Type: in vivo
Settings: 72 h; larval mortality followed for three days; 160 μL sterile water, 1-4 μL test compound in dimethylsulfoxide, 10 μL 2% Brewer's yeast
Protocol: The term “LC50” also is used hereinafter and refers to the concentration of a pest-controlling compound of the invention in the ambient environment of the pest species that is able to cause a 50% mortality of such species. For example, in tests described hereinafter, wherein compounds of the invention are tested for pesticidal efficacy against mosquito larvae, the compounds are present in a state of dynamic equilibrium in the aqueous environment containing the yeast and are taken up by the filter-feeding mosquito larvae during their feeding on the yeast.
(§1) Mosquito larval mortality was followed for three days in microtiter plates containing 160 μL sterile water, 1-4 μL of the test compound dissolved in dimethylsulfoxide, and 10 μL of 2% Brewer's yeast.
as §1, with “yeast. Controls were run under the same conditions without the test compounds. Larval mortality in the controls was 3% for 1-3 μL dimethylsulfoxide, and up to 20% for 4 μL dimethylsulfoxide.” for “yeast.”

| SMILES | LC50 [µM] |
| --- | --- |
| O=C(O)CCC1CC1CCc1ccccc1 (stereo not drawn) [IBI-215, 7-Phenyl-trans-(4,5-methano)heptanoic acid] | 180 ± 30 |
| O=C(O)CCC1CC1CCC1CCCCC1 (stereo not drawn) [IBI-216, 7-Cyclohexyl-trans-(4,5-methano)heptanoic acid] | 300 ± 10 |
| O=C(O)CCC1CC1CCc1ccc(-c2ccccc2)cc1 (stereo not drawn) [IBI-217, 7-(4-Phenyl)phenyl-trans-(4,5-methano)heptanoic acid] | 130 ± 40 |
